According to patent US20260259194A1, “METHOD OF MONITORING MESENCHIMAL STEM CELL (MSC) POTENCY AND IMPROVING MSC DIFFERENTIATION POTENTIAL” (AGENCY FOR SCIENCE, TECHNOLOGY AND RESEARCH, priority 2022, published 2026):

How the values were obtained:
Assay type in all cases: cell-based, human
MSCs [1] = assay: MSC proliferation with HOXA9 inhibitor; conditions: compared with DMSO control
Method: (§1) To validate the effects of HOXA9 knockdown on MSCs, effects of HOXA9 specific inhibitor DB818 on MSCs were determined.

MSCs [2] = assay: CFU-F (colony formation) of MSCs; conditions: compared with DMSO control
Method: as §1

MSCs [3] = assay: Three-lineage differentiation of MSCs, staining (oil red, AP, alcian blue); conditions: compared with DMSO control
Text: (§2) Differentiation potential is the most important property of MSCs. To determine the effects of HOXA9 knockdown on the differentiation potential of MSCs into three lineages, HOXA9 knockdown and scrambled MSCs were induced into three lineages of differentiation. Compared with scrambled control, HOXA9 knockdown decreased oil red stain for oil droplet in adipogenesis, AP stain for alkaline phosphatase in osteogenesis and alcian blue stain for proteoglycan in chondrogenesis [FIG. 6a]. Stain data were validated by qPCR for lineage specific genes, compared with scrambled control, HOXA9 knockdown decreased adipogenenic genes (CEBPα, PPARγ, LPL and αP2), osteogenic genes (OC, OPN and ALP) and chondrogenic genes (COL2A1, AGC1, SOX9 and COL10A1) [FIG. 6b]. AP assay for quantifying alkaline phosphatase activity was consistent with AP stain, HOXA9 knockdown decreased alkaline phosphatase activity [FIG. 6b].
as §1

MSCs [4] = assay: qPCR for lineage specific genes in differentiated MSCs; conditions: compared with control
Text: as §2, §1

## N=C(N)c1ccc(-c2ccc(-c3nc4ccc(C(=N)N)cc4[nH]3)s2)cc1 [DB818]
MSCs [1]
  MSC proliferation: abolished
MSCs [2]
  CFU-F: abolished
MSCs [3]; adipogenesis
  oil red stain for oil droplet in adipogenesis: decreased
MSCs [3]; chondrogenesis
  alcian blue stain for proteoglycan in chondrogenesis: decreased
MSCs [3]; osteogenesis
  AP stain for alkaline phosphatase in osteogenesis: decreased
MSCs [4]
  adipogenenic genes (CEBPα, PPARγ, LPL and αP2): decreased
  chondrogenic genes (COL2A1, AGC1, SOX9 and COL10A1): decreased
  osteogenic genes (RUNX2 and COL1A1): decreased
